Consider 1 compound from patent publication US20250387354A1 (SpringWorks Therapeutics, Inc., priority 2024, published 2025).

This experiment deals with NF1-associated plexiform neurofibromas (PNs). The experiment is described as follows: Phase 2b trial of mirdametinib: confirmed objective response by BICR volumetric MRI per REiNS criteria. It is filed as in vivo, human. On the procedure:
Study treatment was administered orally at a twice daily (BID) dose specified in the table below. Dosing was on a 28-day Cycle (4-week course) with a 3 week on/1 week off schedule. The treatment period will last for up to 24 Cycles followed by a 30-day Safety Follow-Up period.
A partial response was defined as PN decrease ≥20% compared to baseline using centrally read MRI volumetric analysis.
The major efficacy outcome measure was confirmed objective response rate (ORR), defined as the percentage of patients with complete response (disappearance of the target PN) or confirmed partial response ([…]). Responses were assessed by blinded independent central review (BICR) using volumetric magnetic resonance imaging (MRI) analysis per Response Evaluation in Neurofibromatosis and Schwannomatosis (REINS) criteria. A secondary efficacy objective was to determine the duration of response for patients who achieved a confirmed objective response.

Consider `O=C(NOC[C@H](O)CO)c1ccc(F)c(F)c1Nc1ccc(I)cc1F` (single isomer, unassigned) [mirdametinib], for which the “ORR also considering confirmed objective responses after cycle 24” value reads like this: (adults) 45%; (pediatric patients) 54%.
